Test results taken from ChEMBL document CHEMBL1142256, “Phosphoramidate derivatives of hydroxysteroids as inhibitors of prostate-specific membrane antigen” (Bioorg Med Chem Lett, 2008).

Target: Glutamate carboxypeptidase 2 (Homo sapiens, UniProt Q04609)
Assay: Inhibition of human PSMA

Chain of Glutamate carboxypeptidase 2 (Q04609 whole entry): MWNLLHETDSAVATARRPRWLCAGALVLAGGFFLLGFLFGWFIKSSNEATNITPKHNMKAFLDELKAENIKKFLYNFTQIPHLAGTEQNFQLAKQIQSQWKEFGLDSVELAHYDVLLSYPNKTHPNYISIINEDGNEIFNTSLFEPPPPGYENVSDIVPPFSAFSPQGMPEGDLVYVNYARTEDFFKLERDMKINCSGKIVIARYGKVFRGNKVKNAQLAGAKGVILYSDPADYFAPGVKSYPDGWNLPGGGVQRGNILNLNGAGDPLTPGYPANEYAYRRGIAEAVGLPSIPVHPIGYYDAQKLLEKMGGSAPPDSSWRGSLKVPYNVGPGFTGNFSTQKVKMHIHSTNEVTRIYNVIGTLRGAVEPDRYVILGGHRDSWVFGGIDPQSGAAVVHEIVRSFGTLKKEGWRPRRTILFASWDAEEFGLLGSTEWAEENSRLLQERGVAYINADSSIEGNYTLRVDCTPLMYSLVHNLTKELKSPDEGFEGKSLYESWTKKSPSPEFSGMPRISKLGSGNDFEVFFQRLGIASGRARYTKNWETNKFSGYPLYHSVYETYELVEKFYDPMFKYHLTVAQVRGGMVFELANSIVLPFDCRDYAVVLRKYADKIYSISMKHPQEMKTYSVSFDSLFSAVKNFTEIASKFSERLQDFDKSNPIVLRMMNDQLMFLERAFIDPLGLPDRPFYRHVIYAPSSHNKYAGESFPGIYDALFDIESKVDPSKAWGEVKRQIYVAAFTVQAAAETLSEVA

**Q.** For `CC(C)CCC[C@@H](C)[C@H]1CC[C@H]2[C@@H]3CCC4C[C@@H](OP(=O)(O)N[C@@H](CCC(=O)O)C(=O)O)CC[C@]4(C)[C@H]3CC[C@]12C` (stereo partly specified), which IC50 is on record?
**A.** The IC50 was 435 nM.

**Q.** Which IC50 does the source give for `CC(C)CCC[C@@H](C)[C@H]1CC[C@H]2[C@@H]3CCC4C[C@@H](OCCCOP(=O)(O)N[C@@H](CCC(=O)O)C(=O)O)CC[C@]4(C)[C@H]3CC[C@]12C` (stereo partly specified) here?
**A.** The IC50 was 125 nM.

**Q.** How did the IC50 turn out when `C[C@]12CC[C@H](OCCCOP(=O)(O)N[C@@H](CCC(=O)O)C(=O)O)C[C@@H]1CC[C@@H]1[C@@H]2CC[C@]2(C)C(=O)CC[C@@H]12` was run?
**A.** Its IC50 is 438 nM.

**Q.** `C[C@]12CC[C@@H]3c4ccc(OC(=O)c5ccccc5)cc4CC[C@H]3[C@@H]1CC[C@@H]2OCCCOP(=O)(O)N[C@@H](CCC(=O)O)C(=O)O` was tested. Which IC50 did it give?
**A.** Its IC50 is 572 nM.

**Q.** Which IC50 does the source give for `C[C@]12CC[C@@H]3c4ccc(OCCCOP(=O)(O)N[C@@H](CCC(=O)O)C(=O)O)cc4CC[C@H]3[C@@H]1CCC2=O` here?
**A.** Its IC50 is 140 nM.

**Q.** `C[C@]12CC[C@H](OP(=O)(O)N[C@@H](CCC(=O)O)C(=O)O)C[C@@H]1CC[C@@H]1[C@@H]2CC[C@]2(C)C(=O)CC[C@@H]12` was tested. Which IC50 did it give?
**A.** Its IC50 is 569 nM.
